Values of other authors in patent US20100047341A1, “COMBINED PREPARATION FOR THE TREATMENT OF CARDIOVASCULAR DISEASES BASED ON CHRONOTHERAPY THEORY” (HANALL PHARMACEUTICAL CO., LTD., priority 2006, published 2010).

| SMILES | time to maximum level in blood (losartan itself as active form released from the liver to blood) | time to maximum plasma concentration (after the conversion of losartan in the liver) |
| --- | --- | --- |
| CCCCc1nc(Cl)c(CO)n1Cc1ccc(-c2ccccc2-c2nn[nH]n2)cc1 [Losartan, 2-butyl-4chloro-1-[p-(o-1H-tetrazol-5-ylphenyl)benzyl]imidazole-5-methanol] | an hour |  |
| CCCCc1nc(Cl)c(C(=O)O)n1Cc1ccc(-c2ccccc2-c2nn[nH]n2)cc1 [losartan carboxylate] |  | 3 to 4 h |
